Entries after “also recorded” stand apart in the source; their conditions may differ. Read-outs that look alike come from different tables or passages of the source.
Assays:
[1] = test system: human neuroblastoma cells; conditions: Lahiri et al. 1998; cited from earlier work
APP/PS1 and NT mice [2] = assay: Morris water maze (spatial learning and memory); format: in vivo; conditions: 30 mg/kg/day; for time spent in the target area, probe trial: sixth day, 60 s, mean±sem
Excerpt: (§1) Transgenic mice expressing either human PS1 harboring the familial AD-linked A246E mutation or chimeric mouse/human APP695 harboring a human Aβ domain and mutations (K595N, M596L) linked to Swedish familial AD pedigrees (APPswe) (Borchelt et al., 1997) were back-crossed to C57BL/6J for 16 generations and then crossed together to generate double transgenic mice co-expressing both transgenes. In all tests, 8-month-old double-mutant male mice (APP/PS1; n=45) and their non-transgenic littermates (NT; n=36, ) were used. […] The therapeutic dose of memantine was defined as the dose producing a steady-state plasma drug level of ˜1 μM and was determined in 8-month-old male C57 BL/6J mice (background strain of the transgenic mice).
Memantine treatment: Based on the pilot study, the dose of 30 mg/kg/day (see Results section for details) was chosen for the behavioral study and administered in drinking water for 3 weeks. Memantine was administered to 23 APP/PS1 mice and 19 NT mice. The placebo group (APP/PS1: n=22; NT: n=17) received drinking water without memantine. Behavioral testing started 2 weeks after treatment onset and continued for one week. After two weeks of treatment, mice were tested for exploratory activity, isolation-induced aggression, and performance in the Morris water maze.
Morris water maze: The Morris water maze was used to measure spatial learning and memory. The apparatus was a black plastic pool with a diameter of 120 cm. A black escape platform (square, 14×14 cm) was located 1.0 cm below (hidden) the water surface. The temperature of the water was kept constant throughout the experiment (20±0.5° C.), and a 10-min recovery period was allowed between the training trials. First, the mice were pre-trained to find and climb onto the platform for two days by using an alley (1 m×14 cm×25 cm) leading to the platform located 1 cm below the water. The training consisted of 8 consecutive days of testing, with 5 trials per day. […] During the first 5 days of testing the mice were trained with a hidden platform. The platform location was kept constant and the starting position varied between four constant locations at the pool rim. Mice were placed in the water with their nose pointing towards the wall at one of the starting points in a random manner. On the sixth day, the platform was removed and the mice were allowed to swim for 60 s to determine their search bias. On testing days 7 and 8, a black curtain was hung around the swimming pool in order to conceal all extra-maze visual cues. […] Timing of the latency to find the submerged platform was started and ended by the experimenter. A computer connected to an image analyzer (HVS Image®, Hampton, UK) monitored the swim pattern. During the water maze training, we measured swimming speed and latency to find the platform. The wall-swimming tendency (thigmotaxis) was assessed by dividing the pool into 3 concentric zones of equal surface area and calculating the time spent in the outer zone. Search bias during the probe trial was measured by calculating the time the mice spent in the vicinity of where the platform was previously located. We defined this as a target area centered on the platform with a diameter of 30 cm. This target area comprised 6.25% of the total surface area, thus a random swim for 60 s in the pool would yield a dwell time of 3.75 s in the target area during the probe trial.
(§2) Statistical analysis All statistical analyses were performed using SPSS for Windows software, version 11.5.1 (SPSS, Chicago, Ill.). The effects of genotype, treatment, training day, and their interaction with the behavioral parameters of exploratory activity and performance in the Morris water maze were evaluated by analysis of variance (ANOVA) for repeated measures. Attack latency from the isolation-aggression test was analyzed by two-way ANOVA with genotype and treatment as factors.

[3] = Dose-finding pilot study: steady-state plasma concentration of memantine; format: in vivo, male C57BL/6J mice; conditions: male, C57BL/6J, mouse, mean±SEM, read-out: steady-state plasma level
Excerpt: as §1
Dose-finding pilot study: A pilot study was undertaken to determine the therapeutic dose of memantine [i.e., the dose of memantine producing a steady-state plasma drug level of around 1 μM, which several preclinical and clinical studies have indicated is therapeutic (Kornhuber and Quack, 1995; Zajaczkowski et al., 1996)] to be used in subsequent experiments in transgenic mice. Memantine (Forest Research Institute, Jersey City, N.J.) was administered orally (via drinking water) to male C57BL/6J mice at the doses of 10 mg/kg/day (n=10), 30 mg/kg/day (n=10) and 100 mg/kg/day (n=10) for 4 weeks. The placebo group (n=10) had drinking water without memantine. Blood samples were taken from the femoral vein 4 weeks after the initiation of drug treatment to determine the steady-state plasma concentration of memantine. Plasma samples were analyzed at Merz Pharmaceuticals GmbH (Frankfurt am Main, Germany) using a gas chromatograph system coupled with a mass selective detector (Kornhuber and Quack., 1995).

sAPP = sAPP levels in conditioned media by Western blotting (mAb22C11); format: cell-based, human; conditions: SK-N-SH cells; for levels of sAPP in conditioned media: 0.25-1.0 μg/ml (1-4 μM)
Experimental: (§3) Cell culture and drug treatment. Human neuroblastoma (SK-N-SH, ATCC HTB-11, Biedler et al., Cancer Res. 1973, 33(11): 2643-52) cells were seeded at approximately 2×10^6 cells/well in a 6-well plate. Thereafter, drug concentrations of memantine were initiated at 0 μg/ml (control), 0.25 μg/ml (1 μM), 0.5 μg/ml (2 μM), and 1.0 μg/ml (4 μM) in MEM media supplemented with 1% FBS and 1× antibiotic. Treatment period was 12 days with a collection of conditioned media (CM) at 3 day intervals. Following collection, fresh memantine-media was added and the process repeated until harvest on day 12. The levels of both sAPP and Aβ40 were determined as described below.
Analysis of sAPP levels by Western blotting. Levels of total sAPP in the CM samples were measured by denaturing polyacrylamide gel electrophoresis (SDS-PAGE) followed by the Western immunoblotting using mAb22C11 antibody. Samples were loaded on the gel at equal volume of conditioned media (30 μg protein/sample). The density of specific APP bands in the blot was quantified using the NIH Image software. Levels of APP were expressed as a percent of controls. Levels of the constitutively expressed β-actin protein were measured in parallel as an internal control.
(§4) Data Analysis. Data were analyzed from 3-6 independent cell culture experiments. Statistical analysis (e.g., analysis of variance and post-hoc tests for multiple comparisons) was performed using the SPSS program (Statistical Products and Services Solutions, Chicago, Ill.) and included the mean and the standard error of the mean.

[4] = humans; Kornhuber and Quack 1995; cited from earlier work
Aβ40 = Aβ40 levels in conditioned media by sandwich ELISA; format: cell-based, human; conditions: SK-N-SH cells; for levels of Aβ40 in conditioned media: 0.25-1.0 μg/ml (1-4 μM)
Experimental: as §3
Analysis of Aβ levels by ELISA. Quantitative solid phase sandwich ELISA (enzyme linked immunosorbent assay) was used to measure Aβ40 levels in the conditioned media samples. Specifically, an affinity purified anti-human Aβ (35-40) rabbit IgG was used as a capture antibody, and affinity purified HRP-conjugated anti-human Aβ (11-28) rabbit IgG Fab was used as a detection antibody (both reagents from IBL (Japan)). Since an antibody against Aβ (11-28) was used as a secondary conjugated antibody, human Aβ40 variants which cleaved at N-terminus sites were also detectable in the ELISA assay. TMB was used as a coloring agent (Chromogen). The measurement range was from 15.6 to ˜1,000 pg/ml (3.6 to ˜230.9 pmol/l).
as §4

Fisher 344 rats = conditions: 30 mg/kg/day for 8 weeks, Barnes et al. 1996; cited from earlier work
APP/PS1 and NT mice [5] = assay: Exploratory activity (TruScan automated activity monitor); format: in vivo; conditions: 30 mg/kg/day in drinking water, 10-min recording
Excerpt: as §1, with “mice). […]” for “mice).”
Exploratory activity: TruScan® (Coulbourn Instruments, CO, USA) automated activity monitor based on infrared photo detection was used for monitoring exploratory activity. […] Activity was measured for 10 min in two separate sessions separated by 48 h.
as §2, with “Attack latency from the isolation-aggression test was analyzed by two-way ANOVA with genotype and treatment as factors.” left out

APP/PS1 and NT mice [6] = assay: Isolation-induced aggression test; format: in vivo; conditions: 30 mg/kg/day in drinking water
Experimental: Isolation-induced aggression: All test mice (‘residents’) had been housed in individual cages for at least 3 weeks prior to the start of this test. ‘Intruders’ were NT male C57B1/J6 mice, 16-20 weeks old at the time of testing, housed in groups of 4-8 since weaning. A randomly chosen intruder was placed in the resident's cage, and aggression of the resident was assessed by measuring attack latency, i.e. the time in seconds between the introduction of the intruder into the cage and the first attack by the resident. […]
Statistical analysis All statistical analyses were performed using SPSS for Windows software, version 11.5.1 (SPSS, Chicago, Ill.). The effects of genotype, treatment, training day, and their interaction with the behavioral parameters of exploratory activity and performance in the Morris water maze were evaluated by analysis of variance (ANOVA) for repeated measures. […]

rat hippocampal cells = conditions: Miguel-Hidalgo et al. 2002; cited from earlier work
[7] = test system: human neuroblastoma cells SK-N-SH; assay: Cellular toxicity, LDH assay; format: cell-based; conditions: 1-4 μM
Experimental: as §3
Cell Toxicity and Viability Assays. Cell viability in control and memantine-treated samples was measured using MTT (the tetrazolium dye 3-[4,5-dimethylthiazol-2-yl]-2,5-diphenyltetrazolium bromide). Cellular toxicity was measured uding lactate dehydrogenase (LDH) (Sigma, St. Louis, Mo.) assay.

In the case of Nc1c2c(nc3ccccc13)CCCC2 [tacrine], the “cellular damage or toxicity” value [1] is given as “absence of any detectable cellular damage or toxicity”, the “release of Aβ40” value [1] is given as “reduce” and the “release of Aβ42” value [1] is given as “reduce”. The “release of sAPPα” value [1] was “reduce” and the “release of total Aβ” value [1] was “reduce”.

In the case of CC12CC3CC(C)(C1)CC(N)(C3)C2 [memantine, 1-amino-3,5-dimethyl adamantane], the “finding the visible platform” value (APP/PS1 and NT mice [2]; APP/PS1 mice (FIG. 11B), days 7-8) is reported as “did not show a significant improvement”, the “time spent in the outer zone of the pool (thigmotaxis)” value (APP/PS1 and NT mice [2]; APP/PS1 mice, p=0.04) is reported as “significantly reduced” and the “time spent in the target area, probe trial” value (APP/PS1 and NT mice [2]; APP/PS1 mice) is reported as 39.0 ± 2.0 s. For the same compound, the “escape latency, hidden platform” value (APP/PS1 and NT mice [2]; APP/PS1 mice, vs placebo-treated APP/PS1 mice, p=0.02) was “reduced”, the “time spent in the outer zone of the pool (thigmotaxis)” value (APP/PS1 and NT mice [2]; NT mice, p=0.004) was “significantly reduced” and the “escape latency (performance), hidden platform” value (APP/PS1 and NT mice [2]; NT mice, p=0.09 (not significant)) was “trend towards improved performance”. For the same compound, the “time spent in the target area, probe trial” value (APP/PS1 and NT mice [2]; NT mice) was 36.1 ± 2.6 s, the “performance level, hidden platform, compared with placebo-treated NT mice” value (APP/PS1 and NT mice [2]; memantine-treated APP/PS1 mice, Tukey's post-hoc p=0.96) was “did not differ” and the concentration at 4 weeks ([3]; 10 mg/kg/day oral (drinking water)) was 490 ± 60 nM. The concentration at 4 weeks ([3]; 30 mg/kg/day oral (drinking water)) was 1140 ± 70 nM, the concentration at 4 weeks ([3]; 100 mg/kg/day oral (drinking water)) was 5540 ± 400 nM and the “sAPP levels in the conditioned media” value (sAPP; 1 μM for 6-12 days) was “trend towards a decrease”. For the same compound, the “levels of sAPP in conditioned media” value (sAPP; day 3) was “no significant changes”, the “levels of sAPP in conditioned media” value (sAPP; day 6) was “dose-dependent decrease” and the “levels of sAPP in conditioned media” value (sAPP; day 9 and day 12) was “persisting or further decreasing”. For the same compound, the “sAPP levels in the conditioned media” value (sAPP; 2-4 μM for 6-12 days) was “significantly decreased”, the “therapeutically effective circulating concentration” value [4] was “approximately 1 μM” and the “levels of Aβ40 in conditioned media” value (Aβ40; day 3) was “no significant changes”. The “levels of Aβ40 in conditioned media” value (Aβ40; day 6, compared to negative control) was “significant decrease”, the “levels of Aβ40 in conditioned media” value (Aβ40; day 9, compared to negative control) was “significant decrease” and the “Aβ40 levels in the conditioned media” value (Aβ40; 1-4 μM for up to 12 days) was “a decrease in its levels”. The water maze learning (Fisher 344 rats) was “improved water maze learning”, the “horizontal activity (distance traveled)” value (APP/PS1 and NT mice [5]) was “did not significantly affect” and the “vertical activity (rearing)” value (APP/PS1 and NT mice [5]) was “did not significantly affect”. The “aggressive behavior (latency to attack the intruder)” value (APP/PS1 and NT mice [6]; APP/PS1 mice) was “not significantly modified”, the aggressive behavior (APP/PS1 and NT mice [6]; NT mice) was “did not increase” and the Aβ-induced apoptosis (rat hippocampal cells) was “protected”. For the same compound, the “cellular toxicity (LDH)” value [7] was “not affected; also recorded: no toxicity”.

— patent publication US20050113458A1, “Use of 1-aminocyclohexane derivatives to modify deposition of fibrillogenic a-beta peptides in amyloidopathies” (Forest Laboratories, Inc., priority 2003, published 2005)
